The text below walks through data of patent US20050075375A1 (priority 2003, published 2005).

The subject of one test is monocistronic NK5.1 HCV replicon in Huh7 cells. The test can be described thus: HCV replicon assay, monocistronic replicon cell line. In kind it is cell-based, hepatitis C virus. The note with it: Hepatitis C virus, Huh-7, 72 h; Table 1; monocistronic replicon in Huh7 cells, 3 days incubation, HCV RNA/GAPDH RNA by TaqMan RT-PCR; read-out: Mono EC50 Median. The source says: HCV Replicon Assays (Replicon EC50 (μM))
HCV replication can be measured by a replicon assay such as described by Vrolijk et al, J. Virol. Methods 110:201(2003), which is hereby incorporated in its entirety by reference. The method was implemented as follows.
Monocistronic Replicon Cell Line:
Human hepatocyte Huh7 cells containing the monocistronic NK5.1 replicon were obtained from Ralf Bartenschlager at the University of Mainz, Germany. These cells were maintained under hygromycin selection and passaged when 80-90% confluent.
This cell line contains an autonomously replicating RNA element (replicon) incorporating the non-structural HCV elements necessary for replication, and upon which the survival of the replicon in the cell depends. This replicon contains a single internal ribosome entry site (HCV IRES). Inhibition of any of the critical HCV finctions by a compound leads to loss of the replicon as measured by HCV replicon RNA copy number reduction. The amount of HCV RNA present following a standard incubation with a compound is a measure of the anti-HCV activity of the compound. The assay was conducted by preparing sufficient 96-well plates containing these cells, wherein cells are seeded at 6000 cells/well in a 96-well plate, in 200 μl of final media volume. Cells were then incubated for 24 hours at 37 C., 5% CO2, and 95% humidity before compound was added. Six point half-log concentration response assays were conducted to determine potency/EC50 of Formula I compounds to inhibit HCV replicon replication. The final percent DMSO acceptable in this assay system is 0.6%. Compounds were diluted in media in an appropriate format and 5 μl of each drug dilution is added to each well. Cells were then incubated with compounds for 3 days at 37 C., 5% CO2, and 95% humidity. Following the three day incubation period, plates were washed twice with phosphate buffered saline to remove media and cells were lysed with Qiagen extraction buffer. RNA was extracted and isolated with the Qiagen RNAeasy kit according to the manufacturer's protocol (Qiagen). TaqMan One-Step RT-PCR was used in conjunction with an ABI 7700 Sequence Detector (Applied Biosystems) for the quantitation and analysis of HCV replicon RNA copy number. A GAPDH probe was used for internal normalization. The ratio of HCV RNA to cellular GAPDH RNA was determined and compared to the DMSO-only treated control, and the ratio of HCV RNA/GAPDH RNA was used for an EC50 determination and as a measure of specificity for inhibition of the HCV replicon.
In general terms: In antiviral work, replicon cells carry a viral genome segment that copies itself.
As for `O=C(O)c1cc(-c2ccc3ccccc3c2)nn1-c1ccccn1` [Compound 73, 5-Naphthalen-2-yl-2-pyridin-2-yl-2H-pyrazole-3-carboxylic acid], the EC50 (as a rule, the concentration that produces a half-maximal response) was over 32 µM.
In the case of `CN(C)c1ccc(-c2nc(-c3nccc4ccccc34)no2)c(O)c1` [Compound 201, 5-Dimethylamino-2-(3-isoquinolin-1-yl-[1,2,4]oxadiazol-5-yl)-phenol], the EC50 is over 32 µM.
As to `O=[N+]([O-])c1cccnc1-c1noc(-c2cc(F)ccc2O)n1` [Compound 162, 4-Fluoro-2-[3-(3-nitro-pyridin-2-yl)-[1,2,4]oxadiazol-5-yl]-phenol], the EC50 was 17 µM.
With `COc1ccccc1-c1ccn(-c2ncccc2[N+](=O)[O-])n1` [Compound 36, 2-[3-(2-Methoxy-phenyl)-pyrazol-1-yl]-3-nitro-pyridine], the EC50 came to 2.3 µM.
For `Cc1ccc(O)c(-c2nc(-c3ncccc3-c3ccccc3)no2)c1` [Compound 232, 4-Methyl-2-[3-(3-phenyl-pyridin-2-yl)-[1,2,4]oxadiazol-5-yl]-phenol], the EC50 is over 32 µM.
For the molecule `Cc1cccnc1-c1noc(-c2cc(O)ccc2O)n1` [Compound 179, 2-[3-(3-Methyl-pyridin-2-yl)-[1,2,4]oxadiazol-5-yl]-benzene-1,4-diol], the EC50 is 1.3 µM.
With `COc1ccc(O)c(-c2nc(-c3nccc4ccccc34)no2)c1` [Compound 202, 2-(3-Isoquinolin-1-yl-[1,2,4]oxadiazol-5-yl)-4-methoxy-phenol], the EC50 was 1.9 µM.
For `Cc1cc(C(F)(F)F)cc(-n2nc(-c3c(O)ccc4ccccc34)cc2C)n1` [Compound 27, 1-[5-Methyl-i-(6-methyl-4-trifluoromethyl-pyridin-2-yl)-1 H-pyrazol-3-yl]-naphthalen-2-ol], the EC50 worked out at 12 µM.
Consider `COc1ccc2ccccc2c1-c1nc(-c2ncccc2[N+](=O)[O-])no1` [Compound 169], for which the EC50 was over 19 µM.
Consider `Cc1cc(-c2c(O)ccc3ccccc23)nn1-c1ccccc1[N+](=O)[O-]` [Compound 1, 1-[5-Methyl-1-(2-nitro-phenyl)-1 H-pyrazol-3-yl]-naphthalen-2-ol], for which the EC50 was over 32 µM.
For `COc1ccc2ccccc2c1-c1nc(-c2ncccc2C)no1` [Compound 183], the EC50 was over 32 µM.
In the case of `CCOC(=O)c1cc(-c2ccc3ccccc3c2)nn1-c1ccccn1` [Compound 65, 5-Naphthalen-2-yl-2-pyridin-2-yl-2H-pyrazole-3-carboxylic acid ethyl ester], the EC50 was over 32 µM.
In the case of `COc1ccc(-c2nc(-c3ncccc3OC)no2)c(O)c1` [Compound 247, 5-Methoxy-2-[3-(3-methoxy-pyridin-2-yl)-[1,2,4]oxadiazol-5-yl]-phenol], the EC50 was determined as 4.1 µM.
Still for that read-out and setting: as for `Cc1cc(-c2c(O)ccc3ccccc23)nn1-c1ncccc1C(F)(F)F` [Compound 26, 1-[5-Methyl-1-(3-trifluoromethyl-pyridin-2-yl)-1H-pyrazol-3-yl]-naphthalen-2-ol], the figure is over 19 µM; as for `Cc1cc(O)c(-c2cc(C)n(-c3ccccc3F)n2)cc1C` [Compound 15, 2-[1-(2-Fluoro-phenyl)-5-methyl-1H-pyrazol-3-yl]-4,5-dimethyl-phenol], over 19 µM; as for `COc1ccc(O)c(-c2ccn(-c3ccc(C(=O)N4CCCCC4)cn3)n2)c1` [Compound 102, {6-[3-(2-Hydroxy-5-methoxy-phenyl)-pyrazol-1-yl]-pyridin-3-yl)-piperidin-1-yl-methanone], over 32 µM.
As for `Oc1ccc(Br)cc1-c1nc(-c2ccc(C(F)(F)F)cn2)no1` [Compound 213], the EC50 stood at 25 µM.

Staying with this test, now noted: Hepatitis C virus, Huh-7, 72 h; table T3 (compounds 471-640); monocistronic replicon in Huh7 cells, 3 days incubation, HCV RNA/GAPDH RNA by TaqMan RT-PCR; read-out: Mono EC50 Median.
In the case of `Cc1cccnc1-c1nc(-c2ccc(OCc3ccccc3)cc2O)n(C)n1` [Compound 611, 5-Benzyloxy-2-[2-methyl-5-(3-methyl-pyridin-2-yl)-2H-[1,2,4]triazol-3-yl]-phenol], the concentration giving a half-maximal response (EC50) is over 3.2 µM.
With `Fc1cc(-c2nc(-c3ncccc3Br)n[nH]2)ccc1-c1ccccc1` [Compound 491, 3-Bromo-2-[5-(2-Fluoro-biphenyl-4-yl)-1H-[1,2,4]triazol-3-yl]-pyridine], the EC50 is 2.3 µM.
With `O=[N+]([O-])c1ccc(O)c(-c2nc(-c3ccc(C(F)(F)F)cn3)n[nH]2)c1` [Compound 508, 4-Nitro-2-[5-(5-trifluoromethyl-pyridin-2-yl)-2H-[1,2,4]triazol-3-yl]-phenol], the EC50 is over 19 µM.
The same measure, in the same setting: as for `Oc1c(Br)cc(Br)cc1-c1nc(-c2cnccn2)n[nH]1` [Compound 590, 2,4-Dibromo-6-(5-pyrazin-2-yl-2H-[1,2,4]triazol-3-yl)-phenol], the figure is 14 µM; as for `Oc1ccc(Br)cc1-c1nc(-c2ncccc2C(F)(F)F)n[nH]1` [Compound 539, 4-Bromo-2-[5-(3-trifluoromethyl-pyridin-2-yl)-2H-[1,2,4]triazol-3-yl]-phenol], 0.35 µM; as for `Cn1nc(-c2ccccn2)nc1-c1cc([N+](=O)[O-])ccc1O` [Compound 597, 4-Nitro-2-(2-methyl-5-pyridin-2-yl-2H-[1,2,4]triazol-3-yl)-phenol], 11 µM.
Still for that read-out and setting: as for `COc1ccc(F)c(-c2nc(-c3ccc(C(F)(F)F)cn3)n[nH]2)c1` [Compound 524, 2-[5-(2-Fluoro-5-methoxy-phenyl)-1H-[1,2,4]triazol-3-yl]-5-trifluoromethyl-pyridine], the figure is over 19 µM; as for `Brc1cccnc1-c1n[nH]c(-c2cccc3ccccc23)n1` [Compound 483, 3-Bromo-2-(5-naphthalen-1-yl-1H-[1,2,4]triazol-3-yl)-pyridine], over 32 µM.
With `Cn1nc(-c2ccccn2)nc1-c1ccc2ccccc2c1O` [Compound 606, 2-(2-Methyl-5-pyridin-2-yl-2H-[1,2,4]triazol-3-yl)-naphthalen-1-ol], the EC50 amounted to 2.4 µM.
The same measure, in the same setting: as for `Oc1ccc(Cl)cc1-c1nc(-c2cnccn2)n[nH]1` [Compound 579, 4-Chloro-2-(5-pyrazin-2-yl-2H-[1,2,4]triazol-3-yl)-phenol], the figure is 5.8 µM.
Still for that read-out and setting: as for `COc1cccc(-c2nc(-c3ncccc3C)nn2C)c1O` [Compound 615, 6-Methoxy-2-[2-methyl-5-(3-methyl-pyridin-2-yl)-2H-[1,2,4]triazol-3-yl]-phenol], the figure is 18 µM.

Staying with this test, now noted: Hepatitis C virus, Huh-7; monocistronic NK5.1 HCV replicon in Huh7 cells; median value; read-out: Mono EC50 Median.
For the molecule `COc1ccc(O)c(-c2nc(-c3nccc4ccccc34)n[nH]2)c1` [Compound 370, 4-Methoxy-2-(5-isoquinolin-1-yl-2H-[1,2,4]triazol-3-yl)-phenol], the EC50 was 2.9 µM.
As for `Cc1ccc(O)c(-c2nc(-c3ncccc3-c3ccccc3)no2)c1` [Compound 232, 4-Methyl-2-[3-(3-phenyl-pyridin-2-yl)-[1,2,4]oxadiazol-5-yl]-phenol], the EC50 was over 32 µM.
On to `Fc1ccccc1-c1nnc(-c2ccccc2)o1` [Compound 332, 2-(2-Fluoro-phenyl)-5-phenyl-[1,3,4]oxadiazole], for which the EC50 is over 32 µM.
For the molecule `CCN(CC)c1ccc(-c2n[nH]c(-c3ncccc3C)n2)c(O)c1` [Compound 455, 5-Diethylamino-2-[5-(3-methyl-pyridin-2-yl)-2H-[1,2,4]triazol-3-yl]-phenol], the EC50 was 8.1 µM.
The same measure, in the same setting: for `Fc1ccccc1-c1nnc(-c2ccccn2)o1` [Compound 347, 2-[5-(2-Fluoro-phenyl)-[1,3,4]oxadiazol-2-yl]-pyridine] the value was over 32 µM.
Turning to `Brc1ccc(-c2nc(-c3ccccn3)n[nH]2)cc1` [Compound 433, 2-[5-(4-Bromo-phenyl)-1H-[1,2,4]triazol-3-yl]-pyridine], the EC50 was over 19 µM.
For the molecule `COc1ccc(-c2nc(-c3ncccc3OC)no2)c(O)c1` [Compound 247, 5-Methoxy-2-[3-(3-methoxy-pyridin-2-yl)-[1,2,4]oxadiazol-5-yl]-phenol], the EC50 came out at 4.1 µM.
With `CC(=O)Nc1ccc(-c2nc(-c3ncccc3C)no2)c(O)c1` [Compound 291], the EC50 stood at 6 µM.
As for `COc1cccc(-c2nc(-c3cccc(C)n3)n[nH]2)c1` [Compound 405, 2-[5-(3-Methoxy-phenyl)-1H-[1,2,4]triazol-3-yl]-6-methyl-pyridine], the EC50 is over 19 µM.
Turning to `CCOc1cccc(-c2nc(-c3ccc(C(F)(F)F)cn3)no2)c1O` [Compound 269, 2-Ethoxy-6-[3-(5-trifluoromethyl-pyridin-2-yl)-[1,2,4]oxadiazol-5-yl]-phenol], the EC50 stood at 35.9 µM.
For the molecule `Oc1ccc(Br)cc1-c1nc(-c2ccc(C(F)(F)F)cn2)no1` [Compound 213], the EC50 came out at 25 µM.
As to `Oc1c(Cl)cc(Cl)cc1-c1nc(-c2ccccn2)no1` [Compound 281], the 50% effective concentration (EC50) turned out to be 2.1 µM.

Staying with this test, now noted: Table 1; monocistronic replicon in Huh7 cells, 3 days incubation, HCV RNA/GAPDH RNA by TaqMan RT-PCR; read-out: Mono EC50 Median.
`Cc1cccnc1-c1noc(-c2cc(F)ccc2O)n1` [Compound 187]: the EC50 was 6.5 µM.
